From US20190151369A1, “Engineered Stem Cell Therapy for Cardiac Repair” (Emory University, priority 2014, published 2019)
Where no end group is shown, it is not given here. The star is where a group is joined. Palmitoyl = CCCCCCCCCCCCCCCC(=O)*

Experiments:
RNVCMs = assay: Live/Dead assay after H2O2 treatment (simulated ischemic injury in vitro); type: cell-based; conditions: H2O2 (200 μM) treatment
Text: Since oxidative stress in the ischemic heart is increasingly recognized as a possible cause for poor survival of transplanted cells, whether encapsulation of the CMs with PA-RGDS increases their survival when exposed to the H2O2 simulating ischemic condition in vitro was investigated.

mouse experimental MI [1] = assay: Echocardiography (EF, FS) in mouse myocardial infarction model; type: in vivo; conditions: up to 4 weeks after MI induction
Text: (§1) Myocardial infarction (MI) was induced in mice by ligation of the left anterior descending coronary artery, and cells or other reagents were intramyocardially injected through 30 G needles at two different sites in the border zone of the myocardium immediately after surgery. Mice were randomly assigned into four treatment groups: (i) PBS as a control group, (ii) 2×10^5 mESCs-derived CMs only, (iii) PA-RGDS only, or (iv) 2×10^5 mESCs-derived CMs encapsulated with PA-RGDS. Due to the limiting factor of murine heart size and the requirement to deliver a large quantity of cells, only one concentration ratio of PA […] to cells was used for the studies. All CMs were obtained from the same differentiation batch and prelabeled with CM-DiI (red fluorescence) before cell injection for cell tracking in histology.
Next, the therapeutic effects of treatments with CM only, PA-RGDS only and mESC-CMs with PA-RGDS, comparing with PBS control in ischemic myocardium in mice was investigated. Echocardiography was performed regularly to measure cardiac remodeling and function (FIG. 6A).
Prior studies reported that the beneficial effects from treatment with various types of stem cells or stem cell derived cells were substantially diminished by 3-4 weeks, mostly due to massive cell death or ejection from the myocardium. […] (FIG. 7A)

mouse experimental MI [2] = assay: Scar area by Masson's trichrome staining of infarcted hearts; type: in vivo; conditions: 4 weeks after MI induction, N=6
Text: as §1
Masson's Trichrome staining was performed with fixed sections of infarcted hearts to evaluate the extent of scar formation 4 weeks after MI induction.

[3] = Mechanical properties of self-assembled PA-RGDS gel (storage modulus); type: physicochemical
Text: Cardiomyocytes (CMs) derived from pluripotent stem cells (PSCs) including both embryonic stem cells (ESCs) and the induced pluripotent stem cells (iPSCs) are useful for generating new CMs in injured hearts, with PA-RGDS, which addresses low cell survival. The PA-RGDS provides a protective microenvironment for CMs in vivo. An important aspect of the PA-RGDS is the physical properties of the gels, which can be tuned to provide mechanical strength. […] PA-RGDS nanomatrix gels were also observed to be structurally stable with well-defined cylindrical shape and increased durability for handling and transport. This is particularly important for early cell survival, as cardiac tissue scaffolds require enough mechanical strength to resist the cardiac cycle, but enough flexibility to allow the contractile function of implanted CMs. The mechanical strength of PA-RGDS can be tuned for the application.

CH3(CH2)14CONH-GTAGLIGQ-RGDS (Palmitoyl-GTAGLIGQRGDS) [PA-RGDS, gels made 1:1 with PA-S]
Live cells (Live/Dead assay) after H2O2 (RNVCMs): increased cell survival | Cardiac function (EF and FS) by echocardiography (mouse experimental MI [1]): dramatically reduced | Scar area (mouse experimental MI [2]): 41.7±4.7% | Storage modulus (G′) [3]: around 100 Pa
